Test results published in US5919824A, “Aminophenol derivatives” (Daiichi Pharmaceutical Co., Ltd., priority 1995, dated 1999).

What was measured:
[1] = molecular target: T1, human CCK-B/gastrin receptor (Homo sapiens, UniProt P32239); test: Inhibition of binding against gastrin receptor (125I-gastrin, CHO cells); settings: [125I]gastrin 25 pM, CHO cells expressing human CCK-B/gastrin receptor, 37° C.
T1 construct: expressed in transfected cells; host or cells: CHO cells (Chinese hamster ovary)
T1 sequence (P32239 1-447): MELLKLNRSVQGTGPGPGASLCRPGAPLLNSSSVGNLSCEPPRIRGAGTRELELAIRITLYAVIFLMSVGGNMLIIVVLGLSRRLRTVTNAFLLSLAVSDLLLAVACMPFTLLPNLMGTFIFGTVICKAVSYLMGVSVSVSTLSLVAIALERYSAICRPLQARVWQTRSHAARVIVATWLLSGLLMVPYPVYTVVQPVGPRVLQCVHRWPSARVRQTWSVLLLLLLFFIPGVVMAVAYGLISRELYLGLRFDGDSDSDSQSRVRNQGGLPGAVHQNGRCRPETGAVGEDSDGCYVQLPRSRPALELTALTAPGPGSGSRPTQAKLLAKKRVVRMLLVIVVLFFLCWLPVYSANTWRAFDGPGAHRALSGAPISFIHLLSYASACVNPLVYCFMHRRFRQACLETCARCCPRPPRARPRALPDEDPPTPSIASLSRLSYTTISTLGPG
Method: (§1) Separation of human CCK-B/gastrin receptor cDNA clone, separation of human CCK-A receptor cDNA clone, and expression of respective cloned receptors in heterologous cells.
(§2) cDNA of human CCK-B/gastrin receptor cDNA (Pisegna et al.: Biochem. Biophys. Res. Commun., 189, 296-303, 1992) and human CCK-A receptor cDNA (Ulrich et al.: Biochem. Biophys. Res. Commun., 193, 204-211, 1993) have already been isolated. The cDNAs having the reported nucleotide sequences were prepared using routine genetic engineering techniques. The isolated human CCK-B/gastrin receptor cDNA or human CCK-A receptor cDNA was integrated in an expression vector using routine genetic engineering techniques and transfected to CHO cells derived from the Chinese hamster ovary so as to induce expression of respective receptors.
The compounds of the present invention were evaluated by the receptor-binding assay using ^125 I-gastrin and human CCK-B/gastrin receptor expressed in CHO cells. CHO cells expressing the human CCK-B/gastrin receptor were cultured using a Dulbecco's modified Eagle minimum essential medium: nutrient mixture F-12 (hereinafter abbreviated as DMEM/F-12) containing 10% fetal bovine serum at 37° C. in an aerobic phase of 5% CO2 and 95% air. Using a culture dish having a diameter of 16 mm (base area: 2 cm^2), the cells were cultured so as to obtain 5×10^5 cells. The cells were washed with a binding buffer (Earle's balanced salt solution containing 10 mM 4-(2-hydroxyethyl)-1-piperazine ethanesulfonic acid (HEPES) (pH 7.4), 0.1% bovine serum albumin, 2 mM glutamine, and 0.22% sodium hydrogen carbonate) twice, after which a binding buffer (0.5 ml) was added to the dish. To this binding buffer, a test compound (5 μl) dissolved in dimethylsulfoxide (DMSO) was added. The reaction was then allowed to start by adding 0.01 ml (final concentration: 25 pM) of [^125 I]gastrin. When a nonspecific binding amount was obtained, reaction was carried out in the presence of 1 μM of non-labelled gastrin. Reaction was allowed to proceed at 37° C. in an aerobic phase of 5% CO2 and 95% air, after which the cells were washed with phosphate-buffered saline (PBS). [^125 I]gastrin which had not been bound to the cells was removed, and the cells were lysed by adding 1% Triton X-100 (250 μl) to the dish. Radioactivity of this solution was measured by a gamma counter. A specific binding amount was obtained by subtracting a nonspecific binding amount from a total binding amount. Using the thus-obtained specific binding amount, the percentage of the value obtained from a test substance addition group with respect to that of the DMSO addition group was calculated. The percentage was subjected to Hill conversion and then a least squares method, obtaining a 50% inhibitory concentration (IC50).

human CCK-A receptor = molecular target: T2, human CCK-A receptor (Homo sapiens, UniProt P32238); test: Inhibition of binding against CCK-A receptor (125I-CCK8, CHO cells); settings: for receptor selectivity (IC50 ratio of CCK-A/gastrin): factor; for IC50: [125I]CCK8 25 pM, CHO cells expressing human CCK-A receptor, 37° C.
T2 construct: expressed in transfected cells; host or cells: CHO cells (Chinese hamster ovary)
T2 sequence (P32238 1-428): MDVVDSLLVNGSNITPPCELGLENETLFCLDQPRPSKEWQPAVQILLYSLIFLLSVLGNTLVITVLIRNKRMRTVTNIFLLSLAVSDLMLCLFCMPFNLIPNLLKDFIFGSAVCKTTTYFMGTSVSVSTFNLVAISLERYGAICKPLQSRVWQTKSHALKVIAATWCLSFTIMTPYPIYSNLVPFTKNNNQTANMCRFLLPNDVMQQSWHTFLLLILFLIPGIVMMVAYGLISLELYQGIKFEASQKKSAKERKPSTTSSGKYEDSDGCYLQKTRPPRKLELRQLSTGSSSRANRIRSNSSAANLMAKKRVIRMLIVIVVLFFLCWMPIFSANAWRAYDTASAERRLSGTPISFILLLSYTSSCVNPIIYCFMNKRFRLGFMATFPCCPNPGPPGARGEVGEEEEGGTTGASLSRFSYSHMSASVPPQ
Method: as §1, §2
Test method: The compounds of the present invention were evaluated by the receptor-binding assay using ^125 I-gastrin and human CCK-B/gastrin receptor expressed in CHO cells. CHO cells expressing a human CCK-A receptor were cultured using a DMEM/F-12 containing 10% fetal bovine serum at 37° C. in an aerobic phase of 5% CO2 and 95% air. Using a culture dish having a diameter of 16 mm (base area: 2 cm^2), the cells were cultured so as to obtain 5×10^5 cells. The cells were washed with a binding buffer (Earle's balanced salt solution containing 10 mM HEPES (pH 7.4), 0.1% bovine serum albumin, 2 mM glutamine, and 0.22% sodium hydrogen carbonate) twice, after which a binding buffer (0.5 ml) was added to the dish. To this binding buffer, a test compound (5 μl) dissolved in DMSO was added. The reaction was then allowed to start by adding 0.01 ml (final concentration: 25 pM) of [^125 I]CCK8. When a nonspecific binding amount was obtained, reaction was carried out in the presence of 1 μM of non-labelled CCK-8. Reaction was allowed to proceed at 37° C. in an aerobic phase of 5% CO2 and 95% air, after which the cells were washed with PBS. [^125 I]CCK8 which had not been bound to the cells was removed, and the cells were lysed by adding 1% Triton X-100 (250 μl) to the dish. Radioactivity of this solution was measured by a gamma counter. A specific binding amount was obtained by subtracting a nonspecific binding amount from a total binding amount. Using the thus-obtained specific binding amount, the percentage of the value obtained from a test substance addition group with respect to that of the DMSO addition group was calculated. The percentage was subjected to Hill conversion and then to a least squares method, obtaining a 50% inhibitory concentration (IC50).

## COc1cccc(N(CC(=O)N(C)c2ccccc2)C(=O)CNC(=O)Nc2cccc(C(C)S(=O)(=O)O)c2)c1 (racemic) [Control compound A, potassium (±)-1-[3-[3-[N-(3-methoxyphenyl-N-(N-methyl-N-phenylcarbomoylmethyl)-carbamoylmethyl]ureido]phenylethane sulfonate, reference compound]
[1]
  IC50: 6.5 nM
Human CCK-A receptor
  receptor selectivity (IC50 ratio of CCK-A/gastrin): 238
  IC50: 1480 nM

## Cc1ccccc1N(C)C(=O)COc1cccc(N(CC(=O)N(C)c2ccccc2)C(=O)CNC(=O)Nc2cccc(C(C)C(=O)O)c2)c1 (racemic) [Example 79, (±)-2-[3-[3-[N-[3-[N-Methyl-N-(2-methylphenyl)carbamoylmethyloxy]phenyl]-N-(N-methyl-N-phenylcarbamoylmethyl)carbamoylmethyl]ureido]phenyl]propionic acid]
[1]
  IC50: 1.6 nM

## COc1cccc(N(C)C(=O)COc2ccccc2N(CC(=O)N(C)c2ccccc2)C(=O)CNC(=O)Nc2cccc(C(C)C(=O)O)c2)c1 (racemic) [Example 86, (±)-2-[3-[3-[N-[2-[N-(3-Methoxyphenyl)-N-methylcarbamoylmethyloxy]phenyl]-N-(N-methyl-N-phenylcarbamoylmethyl)carbamoylmethyl]ureido]phenyl]propionic acid]
[1]
  IC50: 1 nM

## Cc1cc(C)cc(N(C)C(=O)COc2ccccc2N(CC(=O)N(C)c2ccccc2)C(=O)CNC(=O)Nc2cccc(C(C)C(=O)O)c2)c1 (racemic) [Example 92, Sodium (±)-2-[3-[3-[N-[2-[N-methyl-N-(3,5-dimethylphenyl)carbamoylmethyloxy]phenyl]-N-(N-methyl-N-phenylcarbamoylmethyl)carbamoylmethyl]ureido]phenyl]sodium propionate]
[1]
  IC50: 0.5 nM
Human CCK-A receptor
  receptor selectivity (IC50 ratio of CCK-A/gastrin): 7280
  IC50: 3640 nM

## Cc1cccc(N(C)C(=O)COc2ccccc2N(CC(=O)N(C)c2ccccc2)C(=O)CNC(=O)Nc2cccc(CC(=O)O)c2)c1 [Example 73, 2-[3-[3-[N-[2-[N-Methyl-N-(3-methylphenyl)carbamoylmethyloxy]phenyl]-N-(N-methyl-N-phenylcarbamoylmethyl)carbamoylmethyl]ureido]phenyl]acetic acid]
[1]
  IC50: 1.9 nM

## COc1cccc(N(C)C(=O)COc2ccccc2N(CC(=O)N(C)c2ccccc2)C(=O)CNC(=O)Nc2cccc(CC(=O)O)c2)c1 [Example 87, 2-[3-[3-[N-[2-[N-(3-Methoxyphenyl)-N-methylcarbamoylmethyloxy]phenyl]-N-(N-methyl-N-phenylcarbamoylmethyl)carbamoylmethyl]ureido]phenyl]acetic acid]
[1]
  IC50: 0.87 nM
Human CCK-A receptor
  receptor selectivity (IC50 ratio of CCK-A/gastrin): 3654
  IC50: 3180 nM
